Measured values as given in PubChem BioAssay AID1259407 (Chemical Carcinogenesis Research Information System (CCRIS), 2018).
Active and inactive are the calls of the source. How the calls were made is not given here.

System: CCRIS mutagenicity, Ames/micronucleus/aberration tests
Test: CCRIS mutagenicity studies
Details: Test System: AMES SALMONELLA TYPHIMURIUM
[1] = Strain/Indicator: TA98, Metabolic Activation: NONE, Method: PREINCUBATION
[2] = Strain/Indicator: TA100, Metabolic Activation: NONE, Method: PREINCUBATION
[3] = Strain/Indicator: TA100, Metabolic Activation: NONE, Method: STANDARD PLATE

SMILES: O=C(CCl)c1ccccc1
- mutagenic call (Strain/Indicator: TA98, Metabolic Activation: HAMSTER, LIVER, S-9, AROCLOR 1254 (10%), Method: PREINCUBATION): inactive; negative
- mutagenic call (Strain/Indicator: TA98, Metabolic Activation: NONE): inactive; negative
- mutagenic call [1]: inactive; negative
- mutagenic call (Strain/Indicator: TA98, Metabolic Activation: RAT, LIVER, S-9, AROCLOR 1254 (10%), Method: PREINCUBATION): inactive; negative
- mutagenic call (Strain/Indicator: TA98, Metabolic Activation: RAT, LIVER, S-9, PHENOBARBITONE AND BETA-NAPHTHOFLAVONE): inactive; negative
- mutagenic call (Strain/Indicator: TA100, Metabolic Activation: HAMSTER, LIVER, S-9, AROCLOR 1254 (10%), Method: PREINCUBATION): inactive; negative
- mutagenic call (Strain/Indicator: TA100, Metabolic Activation: NONE): inactive; negative
- mutagenic call [2]: inactive; negative
- mutagenic call (Strain/Indicator: TA100, Metabolic Activation: RAT, LIVER, S-9, AROCLOR 1254 (10%), Method: PREINCUBATION): inactive; negative
- mutagenic call (Strain/Indicator: TA100, Metabolic Activation: RAT, LIVER, S-9, PHENOBARBITONE AND BETA-NAPHTHOFLAVONE): inactive; negative
- mutagenic call (Strain/Indicator: TA1535, Metabolic Activation: HAMSTER, LIVER, S-9, AROCLOR 1254 (10%), Method: PREINCUBATION): inactive; negative
- mutagenic call (Strain/Indicator: TA1535, Metabolic Activation: NONE, Method: PREINCUBATION): inactive; negative
- mutagenic call (Strain/Indicator: TA1535, Metabolic Activation: RAT, LIVER, S-9, AROCLOR 1254 (10%), Method: PREINCUBATION): inactive; negative
- mutagenic call (Strain/Indicator: TA1537, Metabolic Activation: HAMSTER, LIVER, S-9, AROCLOR 1254 (10%), Method: PREINCUBATION): inactive; negative
- mutagenic call (Strain/Indicator: TA1537, Metabolic Activation: NONE, Method: PREINCUBATION): inactive; negative
- mutagenic call (Strain/Indicator: TA1537, Metabolic Activation: RAT, LIVER, S-9, AROCLOR 1254 (10%), Method: PREINCUBATION): inactive; negative
- mutagenic call (Strain/Indicator: TA1538, Metabolic Activation: NONE): inactive; negative
- mutagenic call (Strain/Indicator: TA1538, Metabolic Activation: RAT, LIVER, S-9, PHENOBARBITONE AND BETA-NAPHTHOFLAVONE): inactive; negative

SMILES: O=C(O)Nc1ccc(-c2ccccc2)cc1
- mutagenic call [1]: active; positive
- mutagenic call (Strain/Indicator: TA98, Metabolic Activation: RAT, LIVER, CYTOSOL, Method: PREINCUBATION): active; positive
- mutagenic call (Strain/Indicator: TA98, Metabolic Activation: RAT, LIVER, MICROSOMES, Method: PREINCUBATION): active; positive

SMILES: Clc1ccc(CN2[C@@H]3c4ccccc4-c4ccccc4[C@@H]32)cc1 (stereo not given in full)
- mutagenic call [3]: active; positive

SMILES: O=[N+]([O-])c1cc(CCl)cc([N+](=O)[O-])c1
- mutagenic call [1]: active; positive
- mutagenic call (Strain/Indicator: TA98, Metabolic Activation: RAT, LIVER, S-9, KANECHLOR 500, Method: PREINCUBATION): active; positive
- mutagenic call [2]: active; positive
- mutagenic call (Strain/Indicator: TA100, Metabolic Activation: RAT, LIVER, S-9, KANECHLOR 500, Method: PREINCUBATION): active; positive

SMILES: C#C[C@]1(OC(C)=O)CC[C@H]2[C@@H]3CCC4=CC(=O)CC[C@@H]4[C@H]3CC[C@@]21C
- mutagenic call (Strain/Indicator: TA97A, Metabolic Activation: NONE, Method: HOST-MEDIATED): inactive; negative
- mutagenic call (Strain/Indicator: TA97A, Metabolic Activation: NONE, Method: STANDARD PLATE): inactive; negative
- mutagenic call (Strain/Indicator: TA97A, Metabolic Activation: RAT, LIVER, S-9, PHENOBARBITONE, Method: PREINCUBATION): inactive; negative
- mutagenic call (Strain/Indicator: TA98, Metabolic Activation: MOUSE, LIVER, S-9, Method: STANDARD PLATE): inactive; negative
- mutagenic call (Strain/Indicator: TA98, Metabolic Activation: NONE, Method: HOST-MEDIATED): inactive; negative
- mutagenic call (Strain/Indicator: TA98, Metabolic Activation: NONE, Method: STANDARD PLATE): inactive; negative
- mutagenic call (Strain/Indicator: TA98, Metabolic Activation: RAT, LIVER, S-9, AROCLOR 1254, Method: STANDARD PLATE): inactive; negative
- mutagenic call (Strain/Indicator: TA98, Metabolic Activation: RAT, LIVER, S-9, PHENOBARBITONE, Method: PREINCUBATION): inactive; negative
- mutagenic call (Strain/Indicator: TA100, Metabolic Activation: MOUSE, LIVER, S-9, Method: STANDARD PLATE): inactive; negative
- mutagenic call (Strain/Indicator: TA100, Metabolic Activation: NONE, Method: HOST-MEDIATED): inactive; negative
- mutagenic call [3]: inactive; negative
- mutagenic call (Strain/Indicator: TA100, Metabolic Activation: RAT, LIVER, S-9, AROCLOR 1254, Method: STANDARD PLATE): inactive; negative
- mutagenic call (Strain/Indicator: TA100, Metabolic Activation: RAT, LIVER, S-9, PHENOBARBITONE, Method: PREINCUBATION): inactive; negative
- mutagenic call (Strain/Indicator: TA1535, Metabolic Activation: MOUSE, LIVER, S-9, Method: STANDARD PLATE): inactive; negative
- mutagenic call (Strain/Indicator: TA1535, Metabolic Activation: NONE, Method: HOST-MEDIATED): inactive; negative
- mutagenic call (Strain/Indicator: TA1535, Metabolic Activation: NONE, Method: STANDARD PLATE): inactive; negative
- mutagenic call (Strain/Indicator: TA1535, Metabolic Activation: RAT, LIVER, S-9, AROCLOR 1254, Method: STANDARD PLATE): inactive; negative
- mutagenic call (Strain/Indicator: TA1535, Metabolic Activation: RAT, LIVER, S-9, PHENOBARBITONE, Method: PREINCUBATION): inactive; negative
- mutagenic call (Strain/Indicator: TA1537, Metabolic Activation: MOUSE, LIVER, S-9, Method: STANDARD PLATE): inactive; negative
- mutagenic call (Strain/Indicator: TA1537, Metabolic Activation: NONE, Method: STANDARD PLATE): inactive; negative
- mutagenic call (Strain/Indicator: TA1537, Metabolic Activation: RAT, LIVER, S-9, AROCLOR 1254, Method: STANDARD PLATE): inactive; negative
- mutagenic call (Strain/Indicator: TA1538, Metabolic Activation: MOUSE, LIVER, S-9, Method: STANDARD PLATE): inactive; negative
- mutagenic call (Strain/Indicator: TA1538, Metabolic Activation: NONE, Method: STANDARD PLATE): inactive; negative
- mutagenic call (Strain/Indicator: TA1538, Metabolic Activation: RAT, LIVER, S-9, AROCLOR 1254, Method: STANDARD PLATE): inactive; negative
